The numbers were not newly measured in patent publication US10047075B2, “Pyridines and pyrimidines and use thereof” (Purdue Pharma L.P., priority 2014, dated 2018), which cites them from elsewhere.

Some targets named below: Nav1.3 (Homo sapiens, UniProt Q9NY46); Nav1.6 (Homo sapiens, UniProt Q9UQD0); Nav1.8 (Homo sapiens, UniProt Q9Y5Y9); Nav1.9 (Homo sapiens, UniProt Q9UI33); Nav1.1 (Homo sapiens, UniProt P35498); Nav1.2 (Homo sapiens, UniProt Q99250).
Holding throughout (settings): read-out: TTX IC50; cited from earlier work

Structures are written as SMILES. pIC50: −log10 of the molar value.

Chain of Nav1.6 (Q9UQD0 whole entry, looked up): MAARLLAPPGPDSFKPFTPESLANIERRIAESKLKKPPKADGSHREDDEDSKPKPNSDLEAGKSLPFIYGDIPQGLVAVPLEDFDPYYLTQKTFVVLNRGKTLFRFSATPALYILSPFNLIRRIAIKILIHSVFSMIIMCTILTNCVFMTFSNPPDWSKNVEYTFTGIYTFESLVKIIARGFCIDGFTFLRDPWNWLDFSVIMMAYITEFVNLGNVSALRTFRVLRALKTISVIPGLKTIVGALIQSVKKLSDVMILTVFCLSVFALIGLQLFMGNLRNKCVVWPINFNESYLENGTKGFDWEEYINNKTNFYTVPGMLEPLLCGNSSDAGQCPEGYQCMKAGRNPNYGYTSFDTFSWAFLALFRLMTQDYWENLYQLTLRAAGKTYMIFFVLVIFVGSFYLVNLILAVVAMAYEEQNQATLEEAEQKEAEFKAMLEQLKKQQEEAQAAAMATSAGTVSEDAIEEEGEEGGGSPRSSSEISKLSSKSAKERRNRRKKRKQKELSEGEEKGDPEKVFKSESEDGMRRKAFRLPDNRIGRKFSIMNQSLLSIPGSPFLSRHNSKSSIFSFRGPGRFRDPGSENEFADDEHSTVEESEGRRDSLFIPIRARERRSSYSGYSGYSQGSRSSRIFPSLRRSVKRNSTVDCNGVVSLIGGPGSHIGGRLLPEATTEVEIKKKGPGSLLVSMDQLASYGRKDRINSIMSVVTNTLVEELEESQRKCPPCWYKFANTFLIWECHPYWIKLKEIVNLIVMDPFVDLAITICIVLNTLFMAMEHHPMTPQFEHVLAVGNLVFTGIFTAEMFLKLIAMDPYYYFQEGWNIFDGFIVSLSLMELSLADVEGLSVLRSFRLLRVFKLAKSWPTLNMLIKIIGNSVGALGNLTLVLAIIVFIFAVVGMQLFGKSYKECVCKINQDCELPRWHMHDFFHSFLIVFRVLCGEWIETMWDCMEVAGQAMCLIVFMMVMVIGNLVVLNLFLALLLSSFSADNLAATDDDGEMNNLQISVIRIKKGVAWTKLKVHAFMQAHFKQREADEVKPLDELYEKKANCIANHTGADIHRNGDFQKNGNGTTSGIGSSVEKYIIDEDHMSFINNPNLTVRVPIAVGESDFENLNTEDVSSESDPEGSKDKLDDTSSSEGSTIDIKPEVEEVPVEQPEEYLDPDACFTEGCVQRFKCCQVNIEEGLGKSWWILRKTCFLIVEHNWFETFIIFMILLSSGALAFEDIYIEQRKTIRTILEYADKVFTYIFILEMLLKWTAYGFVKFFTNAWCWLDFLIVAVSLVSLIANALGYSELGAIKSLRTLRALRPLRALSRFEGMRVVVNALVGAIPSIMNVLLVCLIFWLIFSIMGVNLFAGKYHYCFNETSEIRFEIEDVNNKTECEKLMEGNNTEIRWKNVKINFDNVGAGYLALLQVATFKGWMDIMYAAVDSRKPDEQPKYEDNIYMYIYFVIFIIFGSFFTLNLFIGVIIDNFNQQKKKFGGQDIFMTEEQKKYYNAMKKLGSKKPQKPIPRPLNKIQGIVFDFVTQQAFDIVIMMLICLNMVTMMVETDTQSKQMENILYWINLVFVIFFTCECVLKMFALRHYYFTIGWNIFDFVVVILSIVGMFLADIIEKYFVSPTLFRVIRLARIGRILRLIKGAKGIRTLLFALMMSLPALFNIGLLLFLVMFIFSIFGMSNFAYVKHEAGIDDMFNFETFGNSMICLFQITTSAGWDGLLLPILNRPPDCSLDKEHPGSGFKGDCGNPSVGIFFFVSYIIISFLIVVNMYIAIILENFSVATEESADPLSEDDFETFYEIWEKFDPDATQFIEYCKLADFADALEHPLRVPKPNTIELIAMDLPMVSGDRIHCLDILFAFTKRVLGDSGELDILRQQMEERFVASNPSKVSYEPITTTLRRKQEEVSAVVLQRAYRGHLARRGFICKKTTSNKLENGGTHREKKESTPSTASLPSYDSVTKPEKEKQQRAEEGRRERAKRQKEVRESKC
Chain of Nav1.2 (Q99250 whole entry, looked up): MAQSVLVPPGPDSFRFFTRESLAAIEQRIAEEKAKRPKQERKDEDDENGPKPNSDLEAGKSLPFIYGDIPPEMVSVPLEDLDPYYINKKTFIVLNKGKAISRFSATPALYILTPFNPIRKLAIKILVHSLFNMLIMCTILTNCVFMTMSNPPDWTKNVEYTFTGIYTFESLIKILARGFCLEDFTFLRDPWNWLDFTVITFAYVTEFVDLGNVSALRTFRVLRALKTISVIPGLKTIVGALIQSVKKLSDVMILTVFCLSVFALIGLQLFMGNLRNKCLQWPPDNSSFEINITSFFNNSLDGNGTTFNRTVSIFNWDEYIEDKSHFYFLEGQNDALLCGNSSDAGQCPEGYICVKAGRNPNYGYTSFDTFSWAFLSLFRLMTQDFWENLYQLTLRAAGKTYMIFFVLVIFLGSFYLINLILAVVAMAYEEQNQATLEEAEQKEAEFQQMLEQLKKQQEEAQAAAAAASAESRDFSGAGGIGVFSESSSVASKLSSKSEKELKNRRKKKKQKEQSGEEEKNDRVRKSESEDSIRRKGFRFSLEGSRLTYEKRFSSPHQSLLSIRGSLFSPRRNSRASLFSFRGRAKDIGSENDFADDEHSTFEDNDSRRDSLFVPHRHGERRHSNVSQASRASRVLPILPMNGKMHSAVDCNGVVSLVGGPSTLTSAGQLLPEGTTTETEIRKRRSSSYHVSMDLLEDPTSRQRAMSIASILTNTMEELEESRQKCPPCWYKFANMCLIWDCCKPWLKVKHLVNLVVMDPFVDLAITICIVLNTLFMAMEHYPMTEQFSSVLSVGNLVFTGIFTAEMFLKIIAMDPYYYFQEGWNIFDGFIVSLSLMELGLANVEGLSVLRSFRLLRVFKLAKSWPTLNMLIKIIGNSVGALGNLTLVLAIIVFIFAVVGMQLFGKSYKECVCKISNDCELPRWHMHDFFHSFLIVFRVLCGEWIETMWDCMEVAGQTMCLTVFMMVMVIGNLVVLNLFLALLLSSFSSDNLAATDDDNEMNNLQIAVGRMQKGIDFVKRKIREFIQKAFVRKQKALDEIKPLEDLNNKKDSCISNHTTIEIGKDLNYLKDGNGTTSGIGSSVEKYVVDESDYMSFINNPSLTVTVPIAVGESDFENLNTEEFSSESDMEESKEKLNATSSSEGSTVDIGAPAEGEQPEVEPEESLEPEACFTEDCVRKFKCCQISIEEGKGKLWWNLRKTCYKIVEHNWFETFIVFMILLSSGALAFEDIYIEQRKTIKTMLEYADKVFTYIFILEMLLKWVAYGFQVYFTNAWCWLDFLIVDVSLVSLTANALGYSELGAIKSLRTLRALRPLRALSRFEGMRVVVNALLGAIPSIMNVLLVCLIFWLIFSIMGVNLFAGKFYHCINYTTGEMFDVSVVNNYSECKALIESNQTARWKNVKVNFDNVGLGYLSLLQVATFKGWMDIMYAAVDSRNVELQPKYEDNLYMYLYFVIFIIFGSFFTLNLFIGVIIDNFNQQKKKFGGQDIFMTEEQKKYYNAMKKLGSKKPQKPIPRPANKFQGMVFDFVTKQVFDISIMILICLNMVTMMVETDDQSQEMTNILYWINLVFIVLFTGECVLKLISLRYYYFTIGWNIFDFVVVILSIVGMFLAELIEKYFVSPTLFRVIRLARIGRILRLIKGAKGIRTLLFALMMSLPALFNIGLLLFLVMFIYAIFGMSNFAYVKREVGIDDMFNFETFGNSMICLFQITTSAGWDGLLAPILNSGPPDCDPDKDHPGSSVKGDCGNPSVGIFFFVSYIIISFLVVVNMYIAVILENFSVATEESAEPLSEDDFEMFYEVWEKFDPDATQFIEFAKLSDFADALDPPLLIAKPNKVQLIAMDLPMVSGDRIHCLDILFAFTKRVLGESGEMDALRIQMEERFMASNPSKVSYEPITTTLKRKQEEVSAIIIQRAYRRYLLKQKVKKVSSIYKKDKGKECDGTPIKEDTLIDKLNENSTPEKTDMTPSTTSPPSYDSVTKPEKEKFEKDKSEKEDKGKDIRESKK

What is called pIC50 is the IC50 on a negative log10 scale, so that one unit is a factor of ten. Turning to `NC1=N[C@H](O)[C@H]2[C@H]3O[C@]4(O)O[C@@H]([C@@H](O)[C@@]2(N1)[C@@H]4O)[C@]3(O)CO` [TTX, tetrodotoxin], the pIC50 was 7.82 at Nav1.3; 8.22 at Nav1.6; 4.30 at Nav1.8; 6.00 at Nav1.9; 8.00 on Nav1.1; 8.00 at Nav1.2.
